Experimental data published in US20250281446A1, “COMPOSITIONS, SYSTEMS, AND METHODS FOR TREATING CANCER IN STANDARD OF CARE AND/OR PROFIBROTIC CHEMOTHERAPEUTIC AGENT-NAÏVE PATIENTS USING TUMOR TREATING FIELDS AND CHEMOTHERAPEUTIC AGENTS” (Novocure GmbH, priority 2024, published 2025).

How the values were obtained:
[1] = system: platinum-resistant ovarian cancer (PROC); assay: Randomized phase 3 study ENGOT-ov50/GOG-3029/INNOVATE-3 (NCT03940196): TTFields therapy with weekly paclitaxel vs weekly paclitaxel alone; assay type: in vivo, human
Description: This randomized phase 3 study investigated TTFields therapy with paclitaxel (TTFields+PTX) vs paclitaxel (PTX) in patients with platinum-resistant ovarian cancer (PROC).
To evaluate the safety and efficacy of TTFields therapy with weekly paclitaxel compared to weekly paclitaxel alone in PROC, the Phase 3 study design shown in FIG. 1 was utilized. ENGOT-ov50/GOG-3029/INNOVATE-3 (NCT03940196) enrolled adults with PROC, ≤5 prior lines of therapy (LOT), ≤2 prior LOT following platinum-resistance, and ECOG 0-1. Patients received TTFields (200 kHz; ≥18 hours/day)+PTX (80 mg/m^2) weekly or PTX. Primary endpoint was overall survival (OS). 558 patients were randomized to receive TTFields+PTX (n=280) or PTX (n=278) March 2019 to November 2021.
Patients were heavily pretreated in the ITT population, as 24.4% of patients had received 4+prior lines of therapy (LOT), and 65.9% had received prior bevacizumab. In the overall intention-to-treat population, TTFields therapy median duration was 15.9 (0.1-159.7) weeks.
Innovate-3 study excluding patients that had received doxorubicin prior to TTFields+Paclitaxel or Paclitaxel
This Example contains further data related to the study of Example 1. FIGS. 10-11 include data of PROC patients that had received doxorubicin prior to treatment or were Doxorubicin-/PLD-naïve and which received treatment comprising TTFields plus Paclitaxel or Paclitaxel alone. With Doxorubicin treatment prior to use, overall survival was 10.97 months with TTFields and 13.21 months without TTFields. […] In addition, without prior use of doxorubicin/PLD, the hazard ratio for TTFields was 0.593 with a p value of 0.005.

[2] = system: tumor; assay: Preclinical data (unpublished): tumor fibrosis and tissue conductivity

SMILES | overall survival ([1]; Doxorubicin-/PLD-naïve group without prior use of doxorubicin (Example 2, FIGS. 10-11)) [months] | overall survival, post-hoc analysis ([1]; PLD-naïve subgroup (Example 1, FIG. 7), TTFields+PTX n=113, PTX n=88) [months] | median overall survival (OS) ([1]; overall ITT population, PROC patients, PTX 80 mg/m^2 weekly, TTFields 200 kHz, ≥18 hours/day) [months] | overall survival ([1]; patients with Doxorubicin treatment prior to use (Example 2, FIG. 10)) [months] | tissue conductivity [2] | tumor fibrosis [2]
CC(=O)O[C@H]1C(=O)[C@@]2(C)[C@H]([C@H](OC(=O)c3ccccc3)[C@]3(O)C[C@H](OC(=O)[C@H](O)[C@@H](NC(=O)c4ccccc4)c4ccccc4)C(C)=C1C3(C)C)[C@]1(OC(C)=O)CO[C@@H]1C[C@@H]2O [PTX, paclitaxel] | 11.93 | 11.7 | 11.9 | 13.21 | – | –
COc1cccc2c1C(=O)c1c(O)c3c(c(O)c1C2=O)C[C@@](O)(C(=O)CO)C[C@@H]3O[C@H]1C[C@H](N)[C@H](O)[C@H](C)O1 [doxorubicin] | – | – | – | – | changes tissue conductivity | induces tumor fibrosis
